Consider eight compounds from patent publication US20250082612A1, “SREBP-1 INHIBITOR AND PHARMACEUTICAL COMPOSITION FOR TREATING […]” (Jichi Medical University, priority 2021, published 2025).

T1 sequence (P36956 with tags, fused parts or gaps isoform P36956-4 limits assumed): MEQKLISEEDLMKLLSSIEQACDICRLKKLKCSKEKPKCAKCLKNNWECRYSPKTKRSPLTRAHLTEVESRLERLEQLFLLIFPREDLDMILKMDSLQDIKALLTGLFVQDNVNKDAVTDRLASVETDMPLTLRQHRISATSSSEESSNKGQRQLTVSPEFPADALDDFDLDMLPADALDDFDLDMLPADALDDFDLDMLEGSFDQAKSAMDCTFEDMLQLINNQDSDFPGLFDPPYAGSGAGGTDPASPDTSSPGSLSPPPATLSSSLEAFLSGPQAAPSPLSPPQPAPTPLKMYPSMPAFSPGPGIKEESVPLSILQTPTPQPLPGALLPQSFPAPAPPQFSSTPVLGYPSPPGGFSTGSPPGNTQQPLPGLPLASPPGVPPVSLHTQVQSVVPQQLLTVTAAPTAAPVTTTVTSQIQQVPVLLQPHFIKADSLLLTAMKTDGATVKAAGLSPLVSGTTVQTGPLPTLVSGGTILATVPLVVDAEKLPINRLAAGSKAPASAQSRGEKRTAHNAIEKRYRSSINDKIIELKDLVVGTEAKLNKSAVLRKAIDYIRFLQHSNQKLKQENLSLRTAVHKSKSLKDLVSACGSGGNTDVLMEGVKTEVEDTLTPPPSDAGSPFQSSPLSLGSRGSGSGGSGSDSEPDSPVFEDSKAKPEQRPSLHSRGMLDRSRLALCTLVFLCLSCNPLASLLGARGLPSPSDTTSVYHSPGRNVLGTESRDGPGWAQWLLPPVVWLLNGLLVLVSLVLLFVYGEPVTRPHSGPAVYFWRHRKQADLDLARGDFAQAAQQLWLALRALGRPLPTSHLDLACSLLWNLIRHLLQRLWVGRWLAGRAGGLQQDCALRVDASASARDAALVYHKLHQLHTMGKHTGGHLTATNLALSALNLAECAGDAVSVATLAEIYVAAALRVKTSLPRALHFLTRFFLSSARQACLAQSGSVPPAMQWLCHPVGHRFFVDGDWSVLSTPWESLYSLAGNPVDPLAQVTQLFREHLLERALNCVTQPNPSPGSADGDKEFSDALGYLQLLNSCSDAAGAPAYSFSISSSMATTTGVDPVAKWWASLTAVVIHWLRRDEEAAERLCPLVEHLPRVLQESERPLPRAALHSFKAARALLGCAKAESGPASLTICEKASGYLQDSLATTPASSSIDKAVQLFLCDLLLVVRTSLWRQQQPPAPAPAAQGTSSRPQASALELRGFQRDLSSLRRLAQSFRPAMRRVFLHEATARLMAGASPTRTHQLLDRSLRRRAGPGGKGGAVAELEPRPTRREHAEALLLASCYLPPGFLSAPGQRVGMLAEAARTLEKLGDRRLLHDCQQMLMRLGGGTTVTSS

The first data set addresses T1, human SREBP-1c (Homo sapiens, UniProt P36956).
T1 construct: expressed in transfected cells
Nature of the data set: Gal4-SREBP-1c luciferase reporter assay in HepG2 stable expression strain. Format: cell-based. The conditions noted are these: EPA 100 or 300 μM, OA 300 μM, Cho 100 μM, 25HCho 30 μM in culture medium; 24 hours; vs DMSO. The source says: A pcDNA3.1 (+)-Hyg vector (manufactured by Thermo Fisher Scientific, Inc. under the brand of Invitrogen) was inserted with DNA fragments of a firefly luciferase reporter cloned from a pGL3-Basic vector (manufactured by Promega Corporation), a pSV40-Renilla luciferase reporter cloned from a pRL-SV40 vector (manufactured by Promega Corporation), and a human SREBP-1c cloned from a pTK-HSV-hSREBP-1c, whereby a vector having a structure shown in FIG. 1 was constructed. The base sequence of the vector is set forth in SEQ ID NO: 2. In FIG. 1, Gal4-BP1 is a human SREBP-1c that is obtained by fusing sequences of the Gal4-DNA binding domain and the minimal VP16-AD to the N-terminal side. 17 m8 is a DNA sequence to which the Gal4-DNA binding domain binds. CTCF is a DNA sequence that acts as an insulator, which blocks the action of transcription factors.
HepG2 cells, which are a cell line derived from human liver cancer, were cultured in advance to a confluency of 10% confluent in Dulbecco's Modified Eagle's Medium (DMEM) (containing 25 mM glucose, 100 units/mL penicillin, […] streptomycin sulfate, and 10 v/v % fetal bovine serum (FBS)) and then transfected with the vector obtained in (1) described above, by using a Lipofectamine 3000 transfection reagent (manufactured by Thermo Fisher Scientific, Inc. under the brand of Invitrogen), 5 whereby the vector was inserted into the genome. […] Next, a Reporter lysis buffer (Promega Corporation) was added to lyse the cells, and luciferase activity was measured with a luminometer.
Next, each candidate compound (concentration in culture medium: 2 or 5 μM) was added to the cell line (2×10^4 cells/well) seeded in a plurality of 384-well plates, which had been constructed in (2) described above, so that one kind of each compound was added to one well, and incubation was carried out for 24 hours. […] Next, Steady-Glo (a mixture of luciferin and a Lysis buffer) was added thereto, and then luciferase activity was measured with a luminometer. […]
(In a reporter assay the amount or activity of a reporter protein is the signal.)
`CC(C)CCC[C@@H](C)[C@H]1CC[C@H]2[C@@H]3CC=C4C[C@@H](O)CC[C@]4(C)[C@H]3CC[C@]12C` [Cho, cholesterol]: the “luciferase activity (SREBP-1 reporter, FIG. 2)” value was “luciferase activity was reduced”. For the compound `C[C@H](CCCC(C)(C)O)[C@H]1CC[C@H]2[C@@H]3CC=C4C[C@@H](O)CC[C@]4(C)[C@H]3CC[C@]12C` [Compound 25HCho, 25-hydroxycholesterol], the “luciferase activity (SREBP-1 reporter, FIG. 2)” value is listed as “luciferase activity was reduced”. Same read-out and setting: for `CCCCCCCC/C=C\CCCCCCCC(=O)O` [OA, oleic acid] the value was “luciferase luminescence was observed”.

A further data set deals with H4IIEC3 cells. The data set can be described thus: Triglyceride concentration in culture solution of H4IIEC3 hepatocytes. The class given is cell-based, rat. To be noted: 2 μM in culture medium; 24 hours; relative to DMSO group. The method, then:
Specifically, first, H4IIEC3 cells (1×10^5 cells/well) seeded in advance in a 48-well plate, which are a cell line of rat hepatocytes, were cultured for 1 day. Next, culture medium exchange was carried out so that a high glucose DMEM (serum-free) containing each compound (concentration in culture medium: 2 μM) or DMSO as a control was 200 μL/well, and then the cells were incubated for 24 hours. Next, the triglyceride concentration in the culture solution was measured using a Triglyceride E-Test WAKO (FUJIFILM Corporation). In FIG. 7A to FIG. 7F, the triglyceride concentration in each compound addition group was indicated as a relative percentage in a case where the triglyceride concentration in the DMSO addition group was set to 100%.
Regarding `CCCOc1ccccc1OC(=O)CN1C(=O)COc2ccccc21` [(5)], the “triglycerides in culture solution of cultured hepatocytes (FIG. 7A-7F)” value is “reduce triglycerides”. On the same count and under the same terms, for `CSc1nn(-c2ccc([N+](=O)[O-])cc2)c(N)c1C(N)=O` [(6), 5-amino-3-methylsulfanyl-1-(4-nitrophenyl)pyrazole-4-carboxamide] the value was “reduce triglycerides”; for `C=CCNc1nc(-c2ccc(N3CCCC3=O)cc2)cs1` [(11)], “reduce triglycerides”. On the same count and under the same terms, to `COc1ccc2c(c1)[nH]c1c(C)nccc12` [(16)] belongs “reduce triglycerides”; to `CCc1c2c(nc3ccc(O)cc13)-c1cc3c(c(=O)n1C2)COC(=O)[C@]3(O)CC` [(22a)], “reduce triglycerides”.

For the next data set, the target named is T2, human SREBP-2 (Homo sapiens, UniProt Q12772).
T2 construct: expressed in transfected cells
T2 sequence (Q12772 with tags, fused parts or gaps limits assumed): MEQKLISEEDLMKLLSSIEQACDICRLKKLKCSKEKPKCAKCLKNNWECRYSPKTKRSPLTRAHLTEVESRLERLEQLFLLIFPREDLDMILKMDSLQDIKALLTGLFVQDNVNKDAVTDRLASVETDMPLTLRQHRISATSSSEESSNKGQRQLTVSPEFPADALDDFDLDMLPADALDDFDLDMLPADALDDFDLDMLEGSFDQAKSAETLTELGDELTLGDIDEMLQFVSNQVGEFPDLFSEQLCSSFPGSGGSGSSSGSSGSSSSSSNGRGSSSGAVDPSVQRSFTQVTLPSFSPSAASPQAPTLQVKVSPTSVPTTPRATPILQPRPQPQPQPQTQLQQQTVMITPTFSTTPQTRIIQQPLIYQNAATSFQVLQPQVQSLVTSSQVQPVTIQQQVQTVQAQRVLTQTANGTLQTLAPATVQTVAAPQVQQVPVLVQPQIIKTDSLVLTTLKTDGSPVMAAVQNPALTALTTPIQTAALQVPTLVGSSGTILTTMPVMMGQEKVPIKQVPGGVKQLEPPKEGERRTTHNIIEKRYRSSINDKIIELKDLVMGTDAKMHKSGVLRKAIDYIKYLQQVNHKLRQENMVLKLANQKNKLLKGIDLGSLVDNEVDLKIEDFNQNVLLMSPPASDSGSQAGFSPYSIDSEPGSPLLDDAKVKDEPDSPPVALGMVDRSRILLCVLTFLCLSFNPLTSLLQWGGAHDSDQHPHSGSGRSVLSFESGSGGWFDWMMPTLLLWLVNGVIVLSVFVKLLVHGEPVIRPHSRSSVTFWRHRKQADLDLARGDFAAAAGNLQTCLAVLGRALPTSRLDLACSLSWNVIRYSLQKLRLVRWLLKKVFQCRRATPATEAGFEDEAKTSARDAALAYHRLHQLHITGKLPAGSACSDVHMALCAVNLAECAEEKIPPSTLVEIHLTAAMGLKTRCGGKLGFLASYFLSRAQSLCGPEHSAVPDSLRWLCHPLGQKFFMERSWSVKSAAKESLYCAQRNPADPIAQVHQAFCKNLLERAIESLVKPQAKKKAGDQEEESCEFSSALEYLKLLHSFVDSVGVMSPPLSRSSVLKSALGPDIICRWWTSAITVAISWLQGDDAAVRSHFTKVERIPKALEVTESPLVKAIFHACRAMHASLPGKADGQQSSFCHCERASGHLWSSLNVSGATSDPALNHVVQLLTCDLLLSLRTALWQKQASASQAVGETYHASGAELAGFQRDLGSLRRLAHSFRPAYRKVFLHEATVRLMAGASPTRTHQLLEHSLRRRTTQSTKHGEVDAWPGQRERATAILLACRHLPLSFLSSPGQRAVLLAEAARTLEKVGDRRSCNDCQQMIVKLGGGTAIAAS
Nature of the data set: Gal4-SREBP-2 luciferase reporter assay in HepG2 stable expression strain. Format: cell-based. To be noted: EPA 100 or 300 μM, 25HCho 30 μM in culture medium; 24 hours; vs DMSO. An excerpt: In order to exclude compounds such as cholesterol and 25-hydroxycholesterol, which have an inhibitory action on both SREBP-1 and SREBP-2, first, a vector having the structure shown in FIG. 3 was constructed using the same method as in “1.” described above, except that a DNA fragment of human SREBP-2 cloned from pTK-HSVhSREBP-2 was used instead of the DNA fragment of human SREBP-1c. The base sequence of the vector is set forth in SEQ ID NO: 3. In FIG. 3, Gal4-BP2 is a human SREBP-2 that is obtained by fusing sequences of the Gal4-DNA binding domain and the minimal VP16-AD to the N-terminal side.
a stable expression strain of HepG2, which stably expressed firefly luciferase, was established using the same method as in “1. (2)” described above, except that the vector obtained in “2. (1)” described above was used. […] Next, a Reporter lysis buffer (Promega Corporation) was added to lyse the cells, and luciferase activity was measured with a luminometer. […]
Among the 39 kinds of compounds, 23 kinds of compounds were selected by searching the PAINS database (https://www.rdkit.org/docs/source/rdkit. Chem.rdfiltercatalog.html) and excluding, from targets of interest, compounds for which non-specific action had been reported. […] It is noted that the SREBP-1 inhibition rate and the SREBP-2 inhibition rate in the reporter assay were calculated using the following method. […]
With `C[C@H](CCCC(C)(C)O)[C@H]1CC[C@H]2[C@@H]3CC=C4C[C@@H](O)CC[C@]4(C)[C@H]3CC[C@]12C` [Compound 25HCho, 25-hydroxycholesterol], the “luciferase activity (SREBP-2 reporter, FIG. 4)” value is on record as “luciferase activity was reduced”.
